The source of these data is US8946211B2, “Fused aminodihydrothiazine derivatives” (Eisai R&D Management Co., Ltd., priority 2008, dated 2015).

Each structure is given as a SMILES string. Where two headings read alike, the source gives them in different places.

One may read the IC50 as the midpoint of a concentration-inhibition curve.

The experiment relates to Aβ42 production. Kind of experiment: Quantification of Aβ peptide in culture of neurons from rat fetus brain (Aβ ELISA). It is filed as cell-based. The note with it: rat primary cortical neuronal culture (embryonic day 18 Wistar rats), medium collected three days after addition of the compound, Aβx-42 ELISA, read-out: Aβ42 production reducing effect IC50. How it is done:
Quantification of Aβ Peptide in Culture of Neurons from Rat Fetus Brain
(1) Rat Primary Neuronal Culture
Primary neuronal cultures were prepared from the cerebral cortex of embryonic day 18 Wistar rats (Charles River Japan, Yokohama, Japan). Specifically, the embryos were aseptically removed from pregnant rats under ether anesthesia. The brain was isolated from the embryo and immersed in an ice-cold L-15 medium (such as Invitrogen Corp. Cat #11415-064, Carlsbad, Calif., USA, or SIGMA L1518). The cerebral cortex was collected from the isolated brain under a stereoscopic microscope. The cerebral cortex fragments collected were enzymatically treated in an enzyme solution containing 0.25% trypsin (Invitrogen Corp. Cat #15050-065, Carlsbad, Calif., USA) and 0.01% DNase (Sigma D5025, St. Louis, Mo., USA) at 37° C. for 30 minutes to disperse the cells. Here, the enzymatic reaction was stopped by adding inactivated horse serum to the solution. The enzymatically treated solution was centrifuged at 1,500 rpm for five minutes to remove the supernatant. 5 to 10 mL of a medium was added to the resulting cell mass. Neurobasal medium (Invitrogen Corp. Cat #21103-049, Carlsbad, Calif., USA) supplemented with 2% B27 supplement (Invitrogen Corp. Cat #17504-044, Carlsbad, Calif., USA), 25 μM 2-mercaptoethanol (2-ME, WAKO Cat #139-06861, Osaka, Japan), 0.5 mM L-glutamine (Invitrogen Corp. Cat #25030-081, Carlsbad, Calif., USA), and Antibiotics-Antimycotics (Invitrogen Corp. Cat #15240-062, Carlsbad, Calif., USA) was used as the medium (Neurobasal/B27/2-ME). However, the above Neurobasal medium not supplemented with 2-ME (Neurobasal/B27) was used for the assay. The cells were redispersed by mild pipetting of the cell mass to which the medium was added. The cell dispersion was filtered through a 40-μm nylon mesh (Cell Strainer, Cat #35-2340, Becton Dickinson Labware, Franklin Lakes, N.J., USA) to remove the remaining cell mass, and thus a neuronal cell suspension was obtained. The neuronal cell suspension was diluted with the medium and then plated in a volume of 100 μL/well at an initial cell density of 5×10^5 cells/cm^2 in a 96-well polystyrene culture plate pre-coated with poly-L or D-lysine (Falcon Cat #35-3075, Becton Dickinson Labware, Franklin Lakes, N.J., USA coated with poly-L-lysine using the method shown below, or BIOCOAT™ cell environments Poly-D-lysine cell ware 96-well plate, Cat #35-6461, Becton Dickinson Labware, Franklin Lakes, N.J., USA). Poly-L-lysine coating was carried out as follows. 100 μg/mL of a poly-L-lysine (SIGMA P2636, St. Louis, Mo., USA) solution was aseptically prepared with a 0.15 M borate buffer (pH 8.5). […]

For `NC1=N[C@@]2(c3cc(NC(=O)c4ccc(Cl)cn4)ccc3F)CCCCC[C@H]2CS1` (single isomer, unassigned) [Example 248, N-[3-((4aR*,9aS*)-2-amino-4,4a,5,6,7,8,9,9a-octahydrocyclohepta[d][1,3]thiazin-9a-yl)-4-fluorophenyl]-5-chloropyridine-2-carboxamide], where the note is “Neuron, 72 h”, the IC50 was found to be 16 nM.

For `NC1=N[C@@]2(c3cc(NC(=O)c4ncccc4F)ccc3F)CCCCC[C@H]2CS1` [Example 251], the IC50 worked out at 120 nM.

Take `NC1=N[C@@]2(c3cc(NC(=O)c4ncccc4C(F)(F)F)ccc3F)CCCCC[C@H]2CS1` [Example 252]: the IC50 came to 187 nM.

`NC1=N[C@@]2(c3cc(NC(=O)c4ncccc4Br)ccc3F)CCCCC[C@H]2CS1` [Example 253]: the IC50 was determined as 171 nM.
